# Reference: ChEMBL document CHEMBL4373717, “Coumarin-containing hybrids and their anticancer activities” (Eur J Med Chem, 2019)
# Columns and labels:
# [1] = Toxicity in mouse assessed as mouse survival (reference value: 14.5 days); details: in vivo, 348 h
# COS-7 = assay: Cytotoxicity against African green monkey COS7 cells assessed as reduction in cell viability by MTT assay; type: functional, cell-based; details: Chlorocebus aethiops
# HeLa [2] = assay: Cytotoxicity against human HeLa cells assessed as reduction in cell viability by MTT assay; type: functional, cell-based
# MCF7 [3] = assay: Cytotoxicity against human MCF7 cells assessed as reduction in cell viability; type: functional, cell-based
# A549 [4] = assay: Potency index, ratio of cisplatin IC50 to compound IC50 for antiproliferative activity against human A549 cells; type: functional
# K562 [5] = assay: Potency index, ratio of cisplatin IC50 to compound IC50 for antiproliferative activity against human K562 cells; type: functional
# K562 [6] = assay: Antiproliferative activity against human K562 cells after 48 hrs by MTT assay; type: functional, cell-based; details: K562, 48 h
# MCF7 [7] = assay: Antiproliferative activity against human MCF7 cells after 48 hrs by MTT assay; type: functional, cell-based; details: MCF7, 48 h
# A549 [8] = assay: Antiproliferative activity against human A549 cells after 48 hrs by MTT assay; type: functional, cell-based; details: A549, 48 h
# MCF7 [9] = assay: Potency index, ratio of cisplatin IC50 to compound IC50 for antiproliferative activity against human MCF7 cells; type: functional
# AGS = assay: Growth inhibition of human AGS cells; type: functional
# [10] = Growth inhibition of human KATO III cells; type: functional
# SNU1 = assay: Growth inhibition of human SNU1 cells; type: functional
# SK-OV-3 = assay: Growth inhibition of human SKOV3 cells; type: functional
# OVCAR-8 = assay: Growth inhibition of human OVCAR8 cells; type: functional
# BXPC-3 = assay: Growth inhibition of human BxPC3 cells; type: functional
# PANC-1 = assay: Growth inhibition of human PANC1 cells; type: functional
# T-24 = assay: Growth inhibition of human T24 cells; type: functional
# WiDr = assay: Growth inhibition of human WiDr cells; type: functional
# HepG2 [11] = assay: Growth inhibition of human HepG2 cells; type: functional
# SN12C = assay: Growth inhibition of human SN12C cells; type: functional
# K562 [12] = assay: Growth inhibition of human K562 cells; type: functional
# MCF7 [13] = assay: Growth inhibition of human MCF7 cells; type: functional
# MCF7 [14] = assay: Growth inhibition of human MCF7 cells relative to control; type: functional
# MDA-MB-231 [15] = assay: Growth inhibition of human MDA-MB-231 cells relative to control; type: functional
# Ishikawa [16] = assay: Growth inhibition of human Ishikawa cells relative to control; type: functional
# HCT-116 = assay: Anticancer activity against human HCT116 cells; type: functional, cell-based
# PC-3 = assay: Cytotoxicity against human PC3 cells assessed as reduction in cell viability by MTT assay; type: functional, cell-based
# HT-29 = assay: Cytotoxicity against human HT-29 cells assessed as reduction in cell viability by MTT assay; type: functional, cell-based
# A549 [17] = assay: Cytotoxicity against human A549 cells assessed as reduction in cell viability by MTT assay; type: functional, cell-based
# MCF7 [18] = assay: Cytotoxicity against human MCF7 cells assessed as reduction in cell viability by MTT assay; type: functional, cell-based; details: Homo sapiens, MCF7
# MDA-MB-231 [19] = assay: Cytotoxicity against human MDA-MB-231 cells assessed as reduction in cell viability after 24 hrs by MTT assay; type: functional, cell-based; details: Homo sapiens, MDA-MB-231, 24 h
# MDA-MB-231 [20] = assay: Cytotoxicity against human MDA-MB-231 cells assessed as reduction in cell viability after 24 hrs in hypoxic condition by MTT assay; details: MDA-MB-231, 24 h
# A549 [21] = assay: Cytotoxicity against human A549 cells assessed as reduction in cell viability after 24 hrs by MTT assay; type: functional, cell-based; details: A549, 24 h
# A549 [22] = assay: Anticancer activity against human A549 cells by MTT assay; type: functional, cell-based
# MDA-MB-231 [23] = assay: Anticancer activity against human MDA-MB-231 cells by MTT assay; type: functional, cell-based
# HeLa [24] = assay: Anticancer activity against human HeLa cells by MTT assay; type: functional, cell-based
# K562 [25] = assay: Anticancer activity against human K562 cells by MTT assay; type: functional, cell-based
# L02 = assay: Cytotoxicity against human L02 cells assessed as reduction in cell viability after 24 hrs by MTT assay; type: cell-based; details: L02, 24 h
# HEK-293T = assay: Cytotoxicity against HEK293T cells assessed as reduction in cell viability after 24 hrs by MTT assay; type: cell-based; details: Homo sapiens
# HeLa [26] = assay: Cytotoxicity against human HeLa cells assessed as reduction in cell viability after 24 hrs by MTT assay; type: functional, cell-based
# HepG2 [27] = assay: Antiproliferative activity against human HepG2 cells after 72 hrs by ELISA; type: functional, cell-based; details: HepG2, 72 h
# Caco-2 = assay: Antiproliferative activity against human Caco2 cells after 72 hrs by ELISA; type: functional, cell-based; details: Caco-2, 72 h
# 769-P = assay: Anticancer activity against human 769-P cells by MTT assay; type: functional, cell-based
# HepG2 [28] = assay: Anticancer activity against human HepG2 cells by MTT assay; type: functional, cell-based
# HeLa [29] = assay: Antiproliferative activity against human HeLa cells by MTT assay; type: functional, cell-based
# DLD-1 = assay: Cytotoxicity against human DLD1 cells assessed as reduction in cell viability; type: functional, cell-based
# NCI-H460 [30] = assay: Growth inhibition of human NCI-H460 cells; type: functional
# SF-268 = assay: Growth inhibition of human SF268 cells; type: functional
# HepG2 [31] = assay: Cytotoxicity against human HepG2 cells assessed as reduction in cell viability after 48 hrs by MTT assay; type: functional, cell-based; details: HepG2, 48 h
# MCF7 [32] = assay: Cytotoxicity against human MCF7 cells assessed as reduction in cell viability after 24 hrs by MTT assay; type: functional, cell-based; details: MCF7, 24 h
# MDA-MB-231 [33] = assay: Cytotoxicity against human MDA-MB-231 cells assessed as reduction in cell viability; type: functional, cell-based
# Ishikawa [34] = assay: Cytotoxicity against human Ishikawa cells assessed as reduction in cell viability; type: functional, cell-based
# A549 [35] = assay: Growth inhibition of human A549 cells; type: functional
# NCI-H460 [36] = assay: Growth inhibition of human H460 cells; type: functional
# NCI-H1650 = assay: Growth inhibition of human NCI-H1650 cells; type: functional
smiles,measurement,setting,value
O=c1oc2ccccc2cc1-c1csc(N/N=C/c2cc([N+](=O)[O-])ccc2Cl)n1,Survival,[1],39.3 days
same,IC50,COS-7,1.29 to 1.96 µM
same,IC50,HeLa [2],1.29 to 1.96 µM
same,IC50,MCF7 [3],1.29 to 1.96 µM
CCN(CC)CCOc1ccc(-c2c(-c3ccc(NC(=O)CCCCCCCCC(=O)Nc4ccc(-c5c(-c6ccc(OCCN(CC)CC)cc6)c6ccc(OCCN(CC)CC)cc6oc5=O)cc4)cc3)c(=O)oc3cc(OCCN(CC)CC)ccc23)cc1,Ratio IC50,A549 [4],2.4 - 8.3
same,Ratio IC50,K562 [5],2.4 - 8.3
same,IC50,K562 [6],1 to 3.72 µM
same,IC50,MCF7 [7],1 to 3.72 µM
same,IC50,A549 [8],1 to 3.72 µM
same,Ratio IC50,MCF7 [9],2.4 - 8.3
CCN(CC)c1ccc2cc(-c3nc4ccccc4n3C)c(=O)oc2c1,GI50,AGS,0.07 to 0.41 µM
same,GI50,[10],0.07 to 0.41 µM
same,GI50,SNU1,0.07 to 0.41 µM
same,GI50,SK-OV-3,0.07 to 0.41 µM
same,GI50,OVCAR-8,0.07 to 0.41 µM
same,GI50,BXPC-3,0.07 to 0.41 µM
same,GI50,PANC-1,0.07 to 0.41 µM
same,GI50,T-24,0.07 to 0.41 µM
same,GI50,WiDr,0.07 to 0.41 µM
same,GI50,HepG2 [11],0.07 to 0.41 µM
same,GI50,SN12C,0.07 to 0.41 µM
same,GI50,K562 [12],0.07 to 0.41 µM
same,GI50,MCF7 [13],0.07 to 0.41 µM
O=c1oc2ccccc2cc1-c1csc(N/N=C/c2c3ccccc3c(Cl)c3ccccc23)n1,Survival,[1],45.5 days
same,IC50,COS-7,1.29 to 1.96 µM
same,IC50,HeLa [2],1.29 to 1.96 µM
same,IC50,MCF7 [3],1.29 to 1.96 µM
Cc1cc(=O)oc2cc(Oc3nc(-c4cccs4)cn4c(-c5cccs5)cnc34)ccc12,growth inhibition (GI),MCF7 [14],10.57 - 92.29%
same,growth inhibition (GI),MDA-MB-231 [15],10.57 - 92.29%
same,growth inhibition (GI),Ishikawa [16],10.57 - 92.29%
NS(=O)(=O)c1ccc(Nc2nn3c(Cc4cc(=O)oc5ccccc45)nnc3s2)cc1,IC50,HCT-116,2.66 µM
COc1ccc2oc(=O)c(/C=C3\SC(=O)N(C(=O)c4ccc(Cl)cc4)C3=O)cc2c1,IC50,PC-3,0.95 to 3.2 µM
same,IC50,HT-29,0.95 to 3.2 µM
same,IC50,A549 [17],0.95 to 3.2 µM
same,IC50,HeLa [2],0.95 to 3.2 µM
same,IC50,MCF7 [18],0.95 to 3.2 µM
COc1cccc2c1C(=O)c1c(O)c3c(c(O)c1C2=O)C[C@@](O)(C(=O)CO)C[C@@H]3O[C@H]1C[C@H](N)[C@H](O)[C@H](C)O1 [DOXORUBICIN],IC50,MDA-MB-231 [19],3.97 to 5.13 µM
same,IC50,MDA-MB-231 [20],0.6 µM
same,IC50,A549 [21],3.97 to 5.13 µM
same,IC50,A549 [22],0.54 to 0.6 µg/mL
same,IC50,MDA-MB-231 [23],0.45 to 0.89 µg/mL
same,IC50,HeLa [24],0.54 to 0.6 µg/mL
same,IC50,K562 [25],0.54 to 0.6 µg/mL
same,GI50,MCF7 [13],0.04 to 0.09 µM
same,IC50,L02,1.09 µM
same,IC50,HEK-293T,3.77 µM
same,IC50,HeLa [26],3.97 to 5.13 µM
same,IC50,HepG2 [27],4.1 µM
same,IC50,Caco-2,5.13 µM
same,IC50,COS-7,2.05 to 3.04 µM
same,IC50,PC-3,0.82 to 2.13 µM
same,IC50,769-P,0.45 to 0.89 µM
same,IC50,HepG2 [28],0.45 to 0.89 µM
same,IC50,HT-29,0.82 to 2.13 µM
same,IC50,A549 [17],0.82 to 2.13 µM
same,IC50,HeLa [2],0.82 to 3.04 µM
same,IC50,HeLa [29],1.11 µM
same,IC50,DLD-1,163 µM
same,growth inhibition (GI),Ishikawa [16],11.55 - 95.52%
same,GI50,NCI-H460 [30],0.04 to 0.09 µM
same,GI50,SF-268,0.04 to 0.09 µM
same,IC50,HepG2 [31],3.01 µM
CC(C)=CC[C@@H](OCc1ccc(C(=O)/N=C/c2c(Cl)c3ccccc3oc2=O)cc1)C1=CC(=O)c2c(O)ccc(O)c2C1=O,IC50,MDA-MB-231 [19],3.25 to 10.6 µM
same,IC50,A549 [21],3.25 to 10.6 µM
same,IC50,L02,3.25 to 10.6 µM
same,IC50,HEK-293T,3.25 to 10.6 µM
same,IC50,HeLa [26],3.25 to 10.6 µM
same,IC50,MCF7 [32],3.25 to 10.6 µM
CCOC(=O)c1cc2cc(-c3nc4cc(C)ccn4c3NC(C)(C)C)cc(C(C)C)c2oc1=O,IC50,MDA-MB-231 [33],14.1 to 50 µM
same,IC50,Ishikawa [34],14.1 to 50 µM
same,IC50,MCF7 [3],14.1 to 50 µM
COc1ccc(C(=O)CC(c2c(O)c3ccccc3oc2=O)c2c(O)c3ccccc3oc2=O)c(O)c1,GI50,A549 [35],33.3 µM
same,GI50,NCI-H460 [36],35.7 µM
same,GI50,NCI-H1650,50.1 µM
